{"source": "patent US20150110853A1", "about": "“TREATMENT OF RADICAL PROSTATECTOMY-INDUCED ERECTILE DYSFUNCTION” (PANACEA PHARMACEUTICALS, priority 2013, published 2015)", "key": {"[1]": {"system": "cultured neuronal cells", "assay_type": "cell-based", "description": "(§1) PAN-811 was originally developed for cancer therapy due to its ability to inhibit ribonucleotide reductase, a key enzyme required for DNA synthesis. […] PAN-811 was administered intracerebroventricularly (i.c.v.) at a dose of 50 μg per rat at 1 h after arterial occlusion. […] The effect of a single intravenous (i. v.) bolus injection of PAN-811 was also investigated. […] Mechanistically PAN-811 prevents glutamate-induced excitatory cytotoxicity, veratridine-induced sodium channel opening and related cell death, and staurosporine-induced apoptosis. […] In culture, ischemic condition results in a 19-fold increase in intracellular free calcium. PAN-811 at a dose of 5 μM reduced this elevated level by 72%. […] In addition, PAN-811 effectively suppresses oxidative stress in many ways. […] Importantly, PAN-811 manifested as a free radical scavenger in a cell free system where PAN-811 reduced 500 μM of a stable free radical diphenylpicrylhydrazyl by 70%. Taken together, PAN-811 has manifested as a potent neuroprotectant with dual drug targets—oxidative stress and free calcium."}, "[2]": {"molecular_target": "T1, ribonucleotide reductase (Homo sapiens, UniProt P31350)", "T1 sequence (P31350 1-389)": "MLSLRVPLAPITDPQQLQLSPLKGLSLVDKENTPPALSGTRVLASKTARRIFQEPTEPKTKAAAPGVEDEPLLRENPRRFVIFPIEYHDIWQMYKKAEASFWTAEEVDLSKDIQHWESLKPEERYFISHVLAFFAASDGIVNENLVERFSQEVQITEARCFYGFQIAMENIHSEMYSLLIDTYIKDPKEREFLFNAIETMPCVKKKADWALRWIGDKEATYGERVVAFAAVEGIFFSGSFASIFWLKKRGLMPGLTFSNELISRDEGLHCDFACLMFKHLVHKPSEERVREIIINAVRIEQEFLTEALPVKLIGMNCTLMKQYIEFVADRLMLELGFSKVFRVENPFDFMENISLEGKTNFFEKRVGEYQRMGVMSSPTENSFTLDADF", "T1 sequence (P23921 1-792 partner)": "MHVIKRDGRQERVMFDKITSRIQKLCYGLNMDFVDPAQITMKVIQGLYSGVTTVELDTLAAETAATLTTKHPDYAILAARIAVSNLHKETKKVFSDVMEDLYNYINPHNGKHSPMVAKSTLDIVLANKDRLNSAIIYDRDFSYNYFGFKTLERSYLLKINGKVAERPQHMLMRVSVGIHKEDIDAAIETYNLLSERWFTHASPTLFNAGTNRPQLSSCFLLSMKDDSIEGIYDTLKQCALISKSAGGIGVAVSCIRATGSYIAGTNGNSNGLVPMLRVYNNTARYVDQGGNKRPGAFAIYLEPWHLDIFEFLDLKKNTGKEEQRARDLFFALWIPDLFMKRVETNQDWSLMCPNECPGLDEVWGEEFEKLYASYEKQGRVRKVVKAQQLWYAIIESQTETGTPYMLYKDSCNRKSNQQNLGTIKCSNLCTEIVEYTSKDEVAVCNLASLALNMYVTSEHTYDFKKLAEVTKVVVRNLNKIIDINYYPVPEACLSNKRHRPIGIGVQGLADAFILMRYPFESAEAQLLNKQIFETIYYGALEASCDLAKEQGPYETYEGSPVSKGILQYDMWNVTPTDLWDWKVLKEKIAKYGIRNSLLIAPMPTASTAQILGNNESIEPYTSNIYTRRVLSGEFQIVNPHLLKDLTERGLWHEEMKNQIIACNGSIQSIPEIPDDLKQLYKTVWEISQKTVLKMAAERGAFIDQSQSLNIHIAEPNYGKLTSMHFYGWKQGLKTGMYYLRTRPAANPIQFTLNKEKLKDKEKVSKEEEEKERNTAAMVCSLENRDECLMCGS", "conditions": "cited from earlier work"}, "[3]": {"system": "veratridine-induced sodium channel opening", "assay": "veratridine-induced sodium channel opening and related cell death", "assay_type": "cell-based", "description": "as §1"}, "[4]": {"system": "staurosporine-induced apoptosis", "assay": "staurosporine-induced apoptosis", "assay_type": "cell-based", "description": "as §1"}, "[5]": {"system": "ischemic neurodegeneration", "conditions": "0.45 μM; cited from earlier work"}, "[6]": {"system": "hypoxia-induced neuronal cell death", "conditions": "1.2μM; cited from earlier work"}, "[7]": {"system": "human Alzheimer's disease-derived and age-matched olfactory neuroepithelial cells", "assay": "oxidative stress-induced cell death of olfactory neuroepithelial cells", "assay_type": "cell-based", "conditions": "via suppression of intracellular reactive oxygen species", "description": "as §1"}}, "data": [{"smiles": "NC(=S)N/N=C/c1ncccc1N", "note": "[PAN-811, 3-aminopyridine-2-carboxaldehyde thiosemicarbazone]", "values": [{"measurement": "prevention of glutamate-induced excitatory cytotoxicity", "setting": "[1]", "result": "prevents"}, {"measurement": "inhibition of ribonucleotide reductase", "setting": "[2]", "result": "inhibit"}, {"measurement": "prevention of veratridine-induced sodium channel opening and related cell death", "setting": "[3]", "result": "prevents"}, {"measurement": "prevention of staurosporine-induced apoptosis", "setting": "[4]", "result": "prevents"}, {"measurement": "block of ischemic neurodegeneration", "setting": "[5]", "result": "fully blocked"}, {"measurement": "halt of hypoxia-induced neuronal cell death", "setting": "[6]", "result": "completely halted"}, {"measurement": "inhibition of oxidative stress-induced cell death", "setting": "[7]", "result": "inhibited"}]}]}
